Source: patent publication US20240358831A1, “SELECTION OF IMMUNE CELLS USING PEPTIDE MHC COMPLEXES GENERATED BY CONDITIONAL LIGAND EXCHANGE” (IMMATICS US, INC., priority 2021, published 2024)

Test system: CD8+ T cells
Test: In vitro priming of CD8+ T cells with aAPCs (pHLA/anti-CD28) and pHLA multimer staining
Assay type: cell-based, human
Protocol: To perform in vitro stimulations by artificial antigen-presenting cells (aAPCs) loaded with peptide-HLA complexes (pHLA) and anti-CD28 antibody, the inventors first isolated CD8+ T cells via positive selection using CD8 microbeads (Miltenyi Biotec, Bergisch-Gladbach, Germany) from fresh HLA-matched leukapheresis products of healthy donors obtained from the University clinics Mannheim, Germany, after informed consent.
PBMCs and isolated CD8+ lymphocytes were incubated in T cell medium (TCM) until use consisting of RPMI-Glutamax (Thermo Fisher Scientific, Waltham, USA) supplemented with 10% heat-inactivated human AB serum (CC Pro, Oberdorla, Germany), 100 U/ml Penicillin/100 μg/ml Streptomycin (Biozym, Hessisch Oldendorf, Germany), 1 mM sodium pyruvate (CC Pro, Oberdorla, Germany) and 20 μg/ml Gentamycin (Biozym, Hessisch Oldendorf, Germany). 2.5 ng/ml IL-7 (PromoCell, Heidelberg, Germany) and 10 U/ml IL-2 (Novartis Pharma, Nürnberg, Germany) were also added to the TCM at this step.
The purified co-stimulatory mouse IgG2a anti human CD28 Ab 9.3 (Jung et al., 1987) was chemically biotinylated using sulfo-N-hydroxysuccinimidobiotin as recommended by the manufacturer (Perbio, Bonn, Germany). Beads used were 5.6 μm diameter streptavidin coated polystyrene particles (Bangs Laboratories, Illinois, USA).
800.000 beads/200 μl were coated in 96-well plates in the presence of up to four different biotinylated pHLA complexes (total amount 50 ng/well), washed and 600 ng biotinylated anti-CD28 were added subsequently in a volume of 200 μl/well.
Stimulations were initiated in 96-well plates by co-incubating 1×10^6 CD8+ T cells with 2×10^5 washed aAPCs in 200 μl TCM supplemented with 5 ng/ml IL-12 (PromoCell) for 3 days at 37° C. Half of the medium was then exchanged by fresh TCM supplemented with 80 U/ml IL-2 and incubation was continued for 4 days at 37° C. This stimulation cycle was performed for a total of three times. […]
For the pHLA multimer readout using up to eight different pHLA molecules per condition, a two-dimensional combinatorial coding approach was used as previously described (Andersen et al., 2012a; Andersen et al., 2012b) with minor modifications encompassing coupling to 5 different fluorochromes.
Finally, multimeric analyses were performed by staining the cells with Live/dead near IR dye (Thermo Fisher Scientific, Waltham, USA), CD8-FITC antibody clone SK1 (BD, Heidelberg, Germany) and fluorescent pHLA multimers. […] Peptide-specific cells were calculated as percentage of total CD8+ cells. […] In vitro priming of specific multimer+CD8+ lymphocytes was detected by comparing to negative control stimulations.

With SARPPL(X)SV [MUDENG-002] the “UV peptide-specific T cell populations (multimer+ cells among CD8+ cells)” value (stimulated with standard refolded pHLA B*07:02_MUDENG-002, three cycles of stimulation, FIG. 5 A) was 2.4 % of CD8+ cells.
For RL(X)VGSIPR [HNRNPR-002], the “UV peptide-specific T cell populations (multimer+ cells among CD8+ cells)” value (stimulated with pHLA obtained after UV exchange A*03:01_HNRNPR-002×HADV-014 (residual UV monomer), three cycles, FIG. 5 B) was 6.7 % of CD8+ cells.
KILGFVF(X)V [FLUM-003] was tested, and the “Presence of peptide specific cells by multimer staining (standard refolded multimers)” value (after stimulation with A*02:01_FLUM-003×MLA-001, FIG. 3 C+D) was “confirmed the presence” and the “Detection of conditional ligand specific cells by multimer staining with EC monomers from the same UV monomer” value (priming with HLA-A*02_FLUM-003×CMV-001, FIG. 6 Plate B, stimulation position 1 and 2) was “FLUM-003 specific cells were stimulated and detected”.
